From patent US20260327211A1, “MODULATORS OF A POTASSIUM CHANNEL AND OF TRPV1 CHANNEL AND USES THEREOF” (Bsense Bio Therapeutics Ltd., priority 2023, published 2026)
Several values for one entry are separate records, joined by “and”; a condition that tells them apart may be missing. Equal entries are not always repeated.

What was measured:
[1] = Rat liver microsome metabolic stability; type: in vitro ADME; conditions: rat liver microsomes; for half-life at 1 µM: read-out: RLM T1/2
Source text: Liver microsomes which are subcellular particles derived from endoplasmic reticulum of hepatic cells were used for evaluating the tested compounds. These particles are rich in drug metabolizing enzymes, including the cytochrome p-450 family. Liver microsomes are a recommended test system for various in vitro drug metabolism and pharmacokinetics (DMPK) studies. CLint values lower than […] are considered suitable for drug development.
Liver Microsome Metabolic Stability Assay (NADPH): The liver microsome stability assay was evaluated through pre-incubation with HLMs. A liver microsome mixture (pooled from multiple donors) at a concentration of 0.5 mg/mL, and the test compound at a concentration of 1 μM, were warmed in the presence of a NADPH regenerating system (about 1.0 mM) at 37° C. Positive controls, including testosterone (a CYP3A4 substrate), propafenone (a CYP2D6 substrate), and diclofenac (a CYP2C9) substrate, were concurrently incubated with the HLMs, in the presence of the NADPH regenerating system (1.0 mM). Samples were extracted during incubation at multiple intervals: 0, 5, 15, 30, 45 and 60 minutes. To terminate the reactions, the samples were promptly mixed with cooled acetonitrile that included an internal standard (IS). An additional compound was incubated with the HLMs in the absence of the NADPH regeneration system, from which a sample was taken at the 60-minute interval.
The clearance of the test compound in the samples was subsequently analyzed by LC-MS/MS based on the peak area ratios of the analyte to the IS.
The following equation was used to calculate the microsome clearance: […]
Liver weight: 40 grams/kg, 30 grams/kg, 32 grams/kg, 20 grams/kg and 88 grams/kg, for rat, monkey, dog, human and mouse, respectively.

[2] = target: T1, hTRPV1 (Homo sapiens, UniProt Q8NER1); assay: hTRPV1 dual activity electrophysiology, CHO cells co-expressing hKv7.2/3 and hTRPV1; type: cell-based
T1 construct: CDS of NM_080704.4, inserted into the multiple cloning site of pcDNA3.1(+); host or cells: CHO/hKv7.2/3

[3] = Dual hTRPV1 / Dual Expressing CHO, CAP IC50, Kv7.2/3 co-expressed and activated, capsaicin

T1 sequence (Q8NER1 whole entry): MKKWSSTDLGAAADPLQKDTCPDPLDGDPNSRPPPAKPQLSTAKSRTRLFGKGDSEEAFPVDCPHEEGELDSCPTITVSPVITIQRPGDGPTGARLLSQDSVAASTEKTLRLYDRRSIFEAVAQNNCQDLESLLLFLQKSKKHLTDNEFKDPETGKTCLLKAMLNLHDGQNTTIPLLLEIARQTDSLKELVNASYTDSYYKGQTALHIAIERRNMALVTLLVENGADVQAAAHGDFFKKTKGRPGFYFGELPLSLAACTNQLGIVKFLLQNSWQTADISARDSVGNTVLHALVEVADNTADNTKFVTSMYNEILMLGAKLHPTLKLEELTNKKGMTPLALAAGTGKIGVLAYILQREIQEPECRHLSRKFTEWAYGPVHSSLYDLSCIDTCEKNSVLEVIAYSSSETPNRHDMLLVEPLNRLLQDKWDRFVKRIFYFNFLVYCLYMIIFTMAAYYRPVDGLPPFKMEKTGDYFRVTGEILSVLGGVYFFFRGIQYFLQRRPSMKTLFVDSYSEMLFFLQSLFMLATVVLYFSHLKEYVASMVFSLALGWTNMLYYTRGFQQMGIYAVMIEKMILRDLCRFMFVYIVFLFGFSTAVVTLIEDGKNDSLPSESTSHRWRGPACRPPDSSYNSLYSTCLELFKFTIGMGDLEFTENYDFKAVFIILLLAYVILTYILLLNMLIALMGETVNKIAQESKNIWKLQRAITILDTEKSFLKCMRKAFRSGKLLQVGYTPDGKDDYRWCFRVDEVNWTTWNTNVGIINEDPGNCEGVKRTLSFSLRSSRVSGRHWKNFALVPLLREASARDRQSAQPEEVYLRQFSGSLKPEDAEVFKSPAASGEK

Row | SMILES | CLint scaled at 1 µM [1] | half-life at 1 µM [1] | IC50 [2, 3] | also measured
1 | Cc1cn(-c2ccc(F)c(CC(=O)NCC(C)(C)O)c2)c2c(Cl)cc(Cl)cc12 [Compound 421] | 177 mL/min/kg | 14.1 min | – | –
2 | O=C(Cc1cc(-n2cc(Cl)c3cc(Cl)cc(Cl)c32)ccc1F)NCCO [Compound 627] | 63.5 mL/min/kg | 39.3 min | 0.26 nM and 0.27 nM | –
3 | O=C(Cc1cncc(-n2cc(Cl)c3cc(Cl)cc(Cl)c32)c1)N[C@@H]1COC[C@H]1O [Compound 661] | 527 mL/min/kg | 4.7 min | 0.07 nM and 0.068 nM | TRPV1 inhibition, dual-expressing CHO ([2]; 0.01 nM): mild inhibition; TRPV1 inhibition, dual-expressing CHO ([2]; 0.1 nM): inhibited; Potency in dual-expressing CHO vs CHO expressing only TRPV1 ([2]; cho cells): > 200,000 fold
4 | O=C(Cc1nccc(-n2cc(Cl)c3cc(Cl)cc(Cl)c32)n1)NC1COCC1O (stereo not drawn) [Compound 760] | – | 11.9 min | 0.201 nM | inhibition at 100 µM ([2]; CHO, read-out: hTRPV1 current inhibition): 46 ± 13.7%; IC50 ([2]; IC50 of hTRPV1 current inhibition in CHOs with both targets co-expressed and activated, EP): ~0.1 nM
5 | O=C(Cc1ccnc(-n2cc(Cl)c3cc(Cl)cc(Cl)c32)n1)N[C@@H]1COC[C@H]1O [Compound 820] | – | – | 48 nM | –
6 | O=C(Cc1cc(-n2cc(C(F)(F)F)c3cc(Cl)cc(Cl)c32)ncn1)NCCO [Compound 843] | – | – | 0.528 nM | –
7 | CC(C)c1cc(Cl)cc(Cl)c1Nc1ccc(F)c(CC(=O)NCC(C)(C)O)c1 [NH91, reference compound] | – | 2.5 min | – | –
